Where two headings read alike, the source gives them in different places.
How the values were obtained:
[1] = system: Escherichia coli K-12 MG1655; assay: Growth of K-12 MG1655 in varying concentrations of fumaric, itaconic, malic and succinic acid, Growth Profiler; format: cell-based
Experimental: Five colonies from wild-type K-12 MG1655 and 10 individual colonies deriving from each population were inoculated into 300 μL M9+1% glucose in 96 well deepwell plates and incubated in a 300 rpm plate shaker at 37° C. The next day, cells were diluted 10× in M9+1% glucose and 30 μL was transferred into clear-bottomed 96 well half-deepwell plates (with rectangular wells) containing M9+1% glucose and M9+1% glucose+52.78 g/L glutaric acid or 55.56 g/L adipic acid, such that the final concentration of glutaric acid or adipic acid was 47.5 g/L or 50 g/L, respectively. In addition, cryogenic glycerol stocks of the overnight culture were saved in a 96 well plate format. Half deepwell plates were incubated at 37° C. with 225 rpm shaking in a Growth Profiler (Enzyscreen), with optical scans of the plates taken at 15 minute intervals. Green pixel values integrated over a 1 mm diameter circular area in each well were converted to OD600 values using a previously determined calibration between OD600 and green pixel values.
Additionally, each evolved isolate was tested for cross-tolerance toward other dicarboxylic acids of interest. […] All diacids tested were either the neutral sodium salts, or the free diacid was neutralized with sodium hydroxide to pH 7.0 for testing.

[2] = system: Escherichia coli K-12 MG1655 and evolved isolates; format: cell-based; details: 45 g/L fumaric acid
How it was run: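 Wild-type MG1655 and evolved isolates, precultured overnight in M9 + 1% glucose at 37 °C, were diluted into M9 + 1% glucose. Growth at 37 °C, 225 rpm, scanned every 15 min; pixel values calibrated to OD600. Diacids tested as sodium salts or neutralized to pH 7.0.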

Compound: O=C(O)/C=C/C(=O)O [fumaric acid]
- μ (mean) ([1]; growth rate of K-12 MG1655, 10 g/L diacid (sodium salt)): 0.662 h^1
- μ (mean) ([1]; growth rate of K-12 MG1655, 20 g/L diacid (sodium salt)): 0.615 h^1
- μ (mean) ([1]; growth rate of K-12 MG1655, 30 g/L diacid (sodium salt)): 0.482 h^1
- μ (mean) ([1]; growth rate of K-12 MG1655, 40 g/L diacid (sodium salt)): 0.285 h^1
- μ (mean) ([1]; growth rate of K-12 MG1655, 50 g/L diacid (sodium salt)): 0.116 h^1
- tlag (mean) ([1]; lag time of K-12 MG1655, 10 g/L diacid (sodium salt)): 5.8 h
- tlag (mean) ([1]; lag time of K-12 MG1655, 20 g/L diacid (sodium salt)): 6.9 h
- tlag (mean) ([1]; lag time of K-12 MG1655, 30 g/L diacid (sodium salt)): 9.5 h
- tlag (mean) ([1]; lag time of K-12 MG1655, 40 g/L diacid (sodium salt)): 15.4 h
- tlag (mean) ([1]; lag time of K-12 MG1655, 50 g/L diacid (sodium salt)): 30.2 h
- growth rate μ (mean) ([2]; strain ADIP1-1): 0.347 h⁻¹
- lag time tlag (mean) ([2]; strain ADIP1-1): 10.2 h
- growth rate μ (mean) ([2]; strain ADIP1-9): 0.328 h⁻¹
- lag time tlag (mean) ([2]; strain ADIP1-9): 9.8 h
- growth rate μ (mean) ([2]; strain ADIP2-5): 0.358 h⁻¹
- lag time tlag (mean) ([2]; strain ADIP2-5): 11.4 h
- growth rate μ (mean) ([2]; strain ADIP2-6): 0.380 h⁻¹
- lag time tlag (mean) ([2]; strain ADIP2-6): 11.0 h
- growth rate μ (mean) ([2]; strain ADIP2-10): 0.353 h⁻¹
- lag time tlag (mean) ([2]; strain ADIP2-10): 11.0 h
- growth rate μ (mean) ([2]; strain ADIP3-2): 0.327 h⁻¹
- lag time tlag (mean) ([2]; strain ADIP3-2): 9.4 h
- growth rate μ (mean) ([2]; strain ADIP3-4): 0.324 h⁻¹
- lag time tlag (mean) ([2]; strain ADIP3-4): 9.7 h
- growth rate μ (mean) ([2]; strain ADIP3-8): 0.343 h⁻¹
- lag time tlag (mean) ([2]; strain ADIP3-8): 10.1 h
- growth rate μ (mean) ([2]; strain ADIP4-1): 0.264 h⁻¹
- lag time tlag (mean) ([2]; strain ADIP4-1): 11.9 h
- growth rate μ (mean) ([2]; strain ADIP4-8): 0.254 h⁻¹
- lag time tlag (mean) ([2]; strain ADIP4-8): 12.4 h
- growth rate μ (mean) ([2]; strain ADIP5-2): 0.280 h⁻¹
- lag time tlag (mean) ([2]; strain ADIP5-2): 10.6 h
- growth rate μ (mean) ([2]; strain ADIP5-6): 0.444 h⁻¹
- lag time tlag (mean) ([2]; strain ADIP5-6): 9.0 h
- growth rate μ (mean) ([2]; strain ADIP6-3): 0.275 h⁻¹
- lag time tlag (mean) ([2]; strain ADIP6-3): 11.3 h
- growth rate μ (mean) ([2]; strain ADIP6-9): 0.250 h⁻¹
- lag time tlag (mean) ([2]; strain ADIP6-9): 12.3 h
- growth rate μ (mean) ([2]; strain ADIP6-10): 0.308 h⁻¹
- lag time tlag (mean) ([2]; strain ADIP6-10): 10.0 h
- growth rate μ (mean) ([2]; strain ADIP7-2): 0.312 h⁻¹
- lag time tlag (mean) ([2]; strain ADIP7-2): 10.1 h
- growth rate μ (mean) ([2]; strain ADIP7-5): 0.326 h⁻¹
- lag time tlag (mean) ([2]; strain ADIP7-5): 10.0 h
- growth rate μ (mean) ([2]; strain ADIP8-3): 0.202 h⁻¹
- lag time tlag (mean) ([2]; strain ADIP8-3): 14.4 h
- growth rate μ (mean) ([2]; strain ADIP8-7): 0.188 h⁻¹
- lag time tlag (mean) ([2]; strain ADIP8-7): 16.1 h
- growth rate μ (mean) ([2]; strain ADIP8-10): 0.221 h⁻¹
- lag time tlag (mean) ([2]; strain ADIP8-10): 14.3 h
- growth rate μ (mean) ([2]; strain GLUT1-3): 0.293 h⁻¹
- lag time tlag (mean) ([2]; strain GLUT1-3): 13.3 h
- growth rate μ (mean) ([2]; strain GLUT1-9): 0.274 h⁻¹
- lag time tlag (mean) ([2]; strain GLUT1-9): 14.9 h
- growth rate μ (mean) ([2]; strain GLUT1-10): 0.289 h⁻¹
- lag time tlag (mean) ([2]; strain GLUT1-10): 18.9 h
- growth rate μ (mean) ([2]; strain GLUT2-1): 0.277 h⁻¹
- lag time tlag (mean) ([2]; strain GLUT2-1): 13.5 h
- growth rate μ (mean) ([2]; strain GLUT2-9): 0.267 h⁻¹
- lag time tlag (mean) ([2]; strain GLUT2-9): 12.2 h
- growth rate μ (mean) ([2]; strain GLUT2-10): 0.312 h⁻¹
- lag time tlag (mean) ([2]; strain GLUT2-10): 12.3 h
- growth rate μ (mean) ([2]; strain GLUT3-5): 0.263 h⁻¹
- lag time tlag (mean) ([2]; strain GLUT3-5): 16.6 h
- growth rate μ (mean) ([2]; strain GLUT3-7): 0.264 h⁻¹
- lag time tlag (mean) ([2]; strain GLUT3-7): 16.2 h
- growth rate μ (mean) ([2]; strain GLUT3-9): 0.305 h⁻¹
- lag time tlag (mean) ([2]; strain GLUT3-9): 24.3 h
- growth rate μ (mean) ([2]; strain GLUT4-1): 0.295 h⁻¹
- lag time tlag (mean) ([2]; strain GLUT4-1): 14.6 h
- growth rate μ (mean) ([2]; strain GLUT4-4): 0.287 h⁻¹
- lag time tlag (mean) ([2]; strain GLUT4-4): 15.3 h
- growth rate μ (mean) ([2]; strain GLUT4-10): 0.274 h⁻¹
- lag time tlag (mean) ([2]; strain GLUT4-10): 16.3 h
- growth rate μ (mean) ([2]; strain GLUT5-4): 0.386 h⁻¹
- lag time tlag (mean) ([2]; strain GLUT5-4): 14.1 h
- growth rate μ (mean) ([2]; strain GLUT5-5): 0.375 h⁻¹
- lag time tlag (mean) ([2]; strain GLUT5-5): 15.1 h
- growth rate μ (mean) ([2]; strain GLUT5-9): 0.370 h⁻¹
- lag time tlag (mean) ([2]; strain GLUT5-9): 14.9 h
- growth rate μ (mean) ([2]; strain GLUT6-4): 0.281 h⁻¹
- lag time tlag (mean) ([2]; strain GLUT6-4): 13.8 h
- growth rate μ (mean) ([2]; strain GLUT6-5): 0.279 h⁻¹
- lag time tlag (mean) ([2]; strain GLUT6-5): 13.2 h
- growth rate μ (mean) ([2]; strain GLUT6-10): 0.277 h⁻¹
- lag time tlag (mean) ([2]; strain GLUT6-10): 14.2 h
- growth rate μ (mean) ([2]; strain GLUT7-2): 0.304 h⁻¹
- lag time tlag (mean) ([2]; strain GLUT7-2): 14.6 h
- growth rate μ (mean) ([2]; strain GLUT7-6): 0.261 h⁻¹
- lag time tlag (mean) ([2]; strain GLUT7-6): 19.5 h
- growth rate μ (mean) ([2]; strain GLUT7-7): 0.193 h⁻¹
- lag time tlag (mean) ([2]; strain GLUT7-7): 22.0 h
- growth rate μ (mean) ([2]; strain GLUT8-5): 0.247 h⁻¹
- lag time tlag (mean) ([2]; strain GLUT8-5): 14.4 h
- growth rate μ (mean) ([2]; strain GLUT8-6): 0.272 h⁻¹
- lag time tlag (mean) ([2]; strain GLUT8-6): 43.5 h
- growth rate μ (mean) ([2]; strain GLUT8-9): 0.196 h⁻¹
- lag time tlag (mean) ([2]; strain GLUT8-9): 54.3 h
- growth rate μ (mean) ([2]; strain MG1655 (Table 26)): 0.216 h⁻¹
- lag time tlag (mean) ([2]; strain MG1655 (Table 26)): 16.6 h
- growth rate μ (mean) ([2]; strain MG1655 (Table 27)): 0.212 h⁻¹
- lag time tlag (mean) ([2]; strain MG1655 (Table 27)): 15.5 h

From patent US20230139445A1, “BACTERIAL CELLS WITH IMPROVED TOLERANCE TO DIACIDS” (priority 2016, published 2023)
